Test results: patent US7786117B2, “Therapeutic substituted thiazolidinones, oxazolidinones, and related compounds” (Allergan, Inc., priority 2008, dated 2010)

Test system: lashes and adjacent hairs of the eyelids
Assay: Observation of lash and hair growth in glaucoma patients treated with bimatoprost in only one eye
Assay type: in vivo, human
Description: In the course of treating patients having glaucoma, treatment may only be appropriate in one eye. […] The lash appearance on the lids of the treated eyes would have appeared quite attractive if it represented a bilateral phenomenon. As a result of its asymmetric nature, the long lashes on one side could be construed as disturbing from a cosmetic standpoint. A systemic examination was preformed as a result of the asymmetric phenomenon. It soon became apparent that this altered appearance was not an isolated finding.
The changes in the lashes were apparent on gross inspection in several patients once attention was focused on the issue. In those with light colored hair and lashes, the differences were only seen easily with the aid of the high magnification and lighting capabilities of the slit lamp biomicroscope. In the course of glaucoma follow-up examination, attention is generally immediately focused on the eye itself. As a result of the high power magnification needed only one eye is seen at a time and the eye is seen at a high enough power that the lashes are not in focus. At these higher powers, any lash asymmetry between the two eyes is not likely to be noticed except by careful systematic comparison of the lashes and adjacent hairs of the eyelids of the two eyes.
Observed parameters leading to the conclusion that more robust hair growth occurred in the treatment area following administration of the prostaglandin analogue were multiple. They included increased length of lashed, increased number of lashes along the normal lash line, increased thickness and luster of lashes, increased auxiliary lash-like terminal hair in transitional areas adjacent to areas of normal lash growth, increased auxiliary lash-like terminal hairs at the medial and lateral canthal area, increased pigmentation of the lashes, increased numbers, increased length, as well as increased luster, and thickness of fine hair on the skin of the adjacent lid, and finally, increased perpendicular angulation of lashes and lash-like terminal hairs.

CCNC(=O)CCC/C=C\C[C@@H]1[C@@H](/C=C/[C@@H](O)CCc2ccccc2)[C@H](O)C[C@@H]1O [bimatoprost]
lash appearance in the treated eye versus the non-treated eye (a glaucoma patient treated in one eye only): longer, thicker, and fuller in the treated eye than in the non-treated eye
differences in the lashes and adjacent hairs of the treated side (all patients taking the drug on a unilateral basis for longer than 6 months): Definite differences could be identified to varying degrees
hair growth in treated versus control areas, multiple parameters of hair appearance (many subjects, length, number, thickness, luster, pigmentation, angulation of lashes): hair growth is stimulated
